This passage reports IC50 results from US20250163104A1, “MACROCYCLIC IMMUNOMODULATORS” (priority 2021, published 2025).

Where a SMILES comes first, the peptide text is derived from it. Bridges are numbered along the chain shown (N, C = ends). [ ]: non-standard residue; d: D form. The star is where a group is joined. Bip = N[C@@H](Cc1ccc(-c2ccccc2)cc1)C(=O)O; Phe(3-Me) = Cc1cccc(C[C@H](N)C(=O)O)c1; Val(3-OH) = CC(C)(O)[C@H](N)C(=O)O; Benzoyl(4-F) = O=C(c1ccc(F)cc1)*; Hyp = O=C(O)[C@@H]1C[C@@H](O)CN1; 4Pal = N[C@@H](Cc1ccncc1)C(=O)O; Cha = N[C@@H](CC1CCCCC1)C(=O)O; Carboxymethyl = O=C(O)C*; Orn = NCCC[C@H](N)C(=O)O; Dab = NCC[C@H](N)C(=O)O; Dap = NC[C@H](N)C(=O)O; Ac3c = NC1(C(=O)O)CC1; Piv = CC(C)(C)C(=O)*

The target of this assay is T1, human PD-1 / PD-L1-Ig binding on Jurkat cell line over-expressing human PD-1 (Jurkat-PD-1) (Homo sapiens, UniProt Q15116).
T1 construct: expressed in transfected cells; host or cells: Jurkat
T1 sequence (Q15116 25-288): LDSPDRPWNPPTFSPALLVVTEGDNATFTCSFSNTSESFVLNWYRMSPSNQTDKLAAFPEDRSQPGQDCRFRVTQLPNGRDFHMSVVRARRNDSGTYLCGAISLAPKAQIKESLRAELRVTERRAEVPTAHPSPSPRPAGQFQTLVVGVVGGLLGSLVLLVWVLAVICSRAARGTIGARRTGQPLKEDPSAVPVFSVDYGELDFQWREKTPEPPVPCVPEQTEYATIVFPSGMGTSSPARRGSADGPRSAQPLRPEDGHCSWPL
Kind of assay: Jurkat-PD-1 Cell Binding High-Content Screening Assay (CBA). Type of assay: cell-based. As to conditions: Jurkat-PD-1 cells, PE-labeled PD-L1-Ig 20 nM final; read-out: Jurkat HPD1_PDL1 IC50. The method in brief:
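Binding of fluorescent PD-L1-Ig (phycoerythrin linked via the Ig tag, 20 nM final) to PD-1-overexpressing Jurkat cells was imaged after a 2 h, 37° C compound pretreatment and 1 hour ligand incubation.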
One may read the IC50 as the concentration that inhibits the measured activity by half. For the compound `Cc1cccc(C[C@@H]2NC(=O)[C@H](CC(=O)O)NC(=O)[C@H](Cc3ccc(OCC(=O)O)cc3)NC(=O)[C@H](CCCNC(=N)N)NC(=O)CSC[C@@H](C(N)=O)NC(=O)[C@H]([C@@H](C)O)NC(=O)[C@H](C(C)C)NC(=O)[C@H](CC3CCCCC3)NC(=O)[C@H](CCN)NC(=O)[C@@H](CC(C)C)NC(=O)[C@H](CCCN)NC(=O)[C@H](CCCNC(=O)c3ccc(F)cc3)NC(=O)[C@H](Cc3ccc(-c4ccccc4)cc3)NC(=O)[C@H](Cc3ccc(O)cc3)NC2=O)c1` [Compound 2052] ({CH2CO}-RY(Carboxymethyl)D[Phe(3-Me)]Y[Bip][Orn](Benzoyl(4-F))[Orn][dL][Dab][Cha]VTC-NH2; thioether N-14), the IC50 was determined as 145 nM. In the case of `Cc1cccc(C[C@@H]2NC(=O)[C@H](CC(=O)O)NC(=O)[C@H](Cc3ccc(OCC(=O)O)cc3)NC(=O)[C@H](CCCNC(=N)N)NC(=O)CSC[C@@H](C(N)=O)NC(=O)[C@H](CCCNC(=O)c3ccc(F)cc3)NC(=O)[C@H](C(C)C)NC(=O)[C@H](CC3CCCCC3)NC(=O)[C@H](CCN)NC(=O)[C@@H](CC(C)C)NC(=O)[C@H](CCCN)NC(=O)[C@H](Cc3ccc(OCC(=O)O)cc3)NC(=O)[C@H](Cc3ccc(-c4ccccc4)cc3)NC(=O)[C@H](Cc3ccc(O)cc3)NC2=O)c1` [Compound 2053] ({CH2CO}-RY(Carboxymethyl)D[Phe(3-Me)]Y[Bip]Y(Carboxymethyl)[Orn][dL][Dab][Cha]V[Orn](Benzoyl(4-F))C-NH2; thioether N-14) it was 39.4 nM.

In the case of `CC(=O)NCCC[C@@H]1NC(=O)[C@H](C(C)C)NC(=O)[C@H](CC2CCCCC2)NC(=O)[C@H](CCN)NC(=O)[C@@H](CC(C)C)NC(=O)[C@H](CCCN)NC(=O)[C@H](Cc2ccc(OCC(=O)O)cc2)NC(=O)[C@H](Cc2ccc(-c3ccccc3)cc2)NC(=O)[C@H](Cc2ccc(O)cc2)NC(=O)[C@H](Cc2cccc(C)c2)NC(=O)[C@H](CC(=O)O)NC(=O)[C@H](Cc2ccc(OCC(=O)O)cc2)NC(=O)[C@H](CCCNC(=N)N)NC(=O)CSC[C@@H](C(N)=O)NC1=O` [Compound 2054] ({CH2CO}-RY(Carboxymethyl)D[Phe(3-Me)]Y[Bip]Y(Carboxymethyl)[Orn][dL][Dab][Cha]V[Orn](Ac)C-NH2; thioether N-14), the IC50 came to 12.4 nM. In the case of `Cc1cccc(C[C@@H]2NC(=O)[C@H](CC(=O)O)NC(=O)[C@H](Cc3ccc(OCC(=O)O)cc3)NC(=O)[C@H](CCCNC(=N)N)NC(=O)CSC[C@@H](C(N)=O)NC(=O)[C@H]([C@@H](C)O)NC(=O)[C@H](C(C)C)NC(=O)[C@H](CC3CCCCC3)NC(=O)[C@H](CCN)NC(=O)[C@@H](CC(C)C)NC(=O)[C@H](CCCN)NC(=O)[C@H](CCCN)NC(=O)[C@H](Cc3ccc(-c4ccccc4)cc3)NC(=O)[C@H](Cc3ccc(O)cc3)NC2=O)c1` [Compound 2055] ({CH2CO}-RY(Carboxymethyl)D[Phe(3-Me)]Y[Bip][Orn][Orn][dL][Dab][Cha]VTC-NH2; thioether N-14) it was 97.3 nM. Turning to `Cc1cccc(C[C@@H]2NC(=O)[C@H](CC(=O)O)NC(=O)[C@H](Cc3ccc(OCC(=O)O)cc3)NC(=O)[C@H](CCCNC(=N)N)NC(=O)CSC[C@@H](C(N)=O)NC(=O)[C@H]([C@@H](C)O)NC(=O)[C@H](C(C)C)NC(=O)[C@H](CC3CCCCC3)NC(=O)[C@H](CCN)NC(=O)[C@@H](CC(C)C)NC(=O)[C@H](CCCN)NC(=O)[C@H](Cc3ccc(OCC(=O)O)cc3)NC(=O)[C@H](Cc3ccc(-c4ccccc4)cc3)NC(=O)[C@H](Cc3ccc(O)cc3)NC2=O)c1` [Compound 2056] ({CH2CO}-RY(Carboxymethyl)D[Phe(3-Me)]Y[Bip]Y(Carboxymethyl)[Orn][dL][Dab][Cha]VTC-NH2; thioether N-14), the IC50 stood at 27.5 nM. In the case of `Cc1cccc(C[C@@H]2NC(=O)[C@H](CC(=O)O)NC(=O)[C@H](Cc3ccc(OCC(=O)O)cc3)NC(=O)[C@H](Cc3ccncc3)NC(=O)CSC[C@@H](C(=O)N[C@@H](CCN)C(N)=O)NC(=O)[C@H](CO)NC(=O)[C@H](C(C)(C)O)NC(=O)[C@H](CC3CCCCC3)NC(=O)[C@H](CCN)NC(=O)[C@@H](CC(C)C)NC(=O)[C@H](CCCN)NC(=O)[C@H](Cc3ccc(OCC(=O)O)cc3)NC(=O)[C@H](Cc3ccc(-c4ccccc4)cc3)NC(=O)[C@H](Cc3ccc(OCC(=O)O)cc3)NC2=O)c1` [Compound 2057] ({CH2CO}-[4Pal]Y(Carboxymethyl)D[Phe(3-Me)]Y(Carboxymethyl)[Bip]Y(Carboxymethyl)[Orn][dL][Dab][Cha][Val(3-OH)]SC[Dab]-NH2; thioether N-14) it was 3.6 nM.

For `Cc1cccc(C[C@@H]2NC(=O)[C@H](CC(=O)O)NC(=O)[C@H](Cc3ccc(OCC(=O)O)cc3)NC(=O)[C@H](C(C)(C)O)NC(=O)CSC[C@@H](C(=O)N[C@@H](CCN)C(N)=O)NC(=O)[C@H](CO)NC(=O)[C@H](C(C)(C)O)NC(=O)[C@H](CC3CCCCC3)NC(=O)[C@H](CCN)NC(=O)[C@@H](CC(C)C)NC(=O)[C@H](CCCN)NC(=O)[C@H](Cc3ccc(OCC(=O)O)cc3)NC(=O)[C@H](Cc3ccc(-c4ccccc4)cc3)NC(=O)[C@H](Cc3ccc(OCC(=O)O)cc3)NC2=O)c1` [Compound 2058] ({CH2CO}-[Val(3-OH)]Y(Carboxymethyl)D[Phe(3-Me)]Y(Carboxymethyl)[Bip]Y(Carboxymethyl)[Orn][dL][Dab][Cha][Val(3-OH)]SC[Dab]-NH2; thioether N-14), the IC50 turned out to be 25.2 nM. In the case of `Cc1cccc(C[C@@H]2NC(=O)[C@H](CC(=O)O)NC(=O)[C@H](Cc3ccc(OCC(=O)O)cc3)NC(=O)[C@@H]3C[C@@H](O)CN3C(=O)CSC[C@@H](C(=O)N[C@@H](CCN)C(N)=O)NC(=O)[C@H](CO)NC(=O)[C@H](C(C)(C)O)NC(=O)[C@H](CC3CCCCC3)NC(=O)[C@H](CCN)NC(=O)[C@@H](CC(C)C)NC(=O)[C@H](CCCN)NC(=O)[C@H](Cc3ccc(OCC(=O)O)cc3)NC(=O)[C@H](Cc3ccc(-c4ccccc4)cc3)NC(=O)[C@H](Cc3ccc(OCC(=O)O)cc3)NC2=O)c1` [Compound 2059] ({CH2CO}-[Hyp]Y(Carboxymethyl)D[Phe(3-Me)]Y(Carboxymethyl)[Bip]Y(Carboxymethyl)[Orn][dL][Dab][Cha][Val(3-OH)]SC[Dab]-NH2; thioether N-14) it was 356 nM; in that of `Cc1cccc(C[C@@H]2NC(=O)[C@H](CC(=O)O)NC(=O)[C@H](Cc3ccc(OCC(=O)O)cc3)NC(=O)[C@H](Cc3ccncc3)NC(=O)CSC[C@@H](C(=O)N[C@@H](CCNC(=O)C(C)(C)C)C(N)=O)NC(=O)[C@H]([C@@H](C)O)NC(=O)[C@H](C(C)C)NC(=O)[C@H](CC3CCCCC3)NC(=O)[C@H](CCN)NC(=O)[C@@H](CC(C)C)NC(=O)[C@H](CCN)NC(=O)[C@H](Cc3ccc(OCC(=O)O)cc3)NC(=O)[C@H](Cc3ccc(-c4ccccc4)cc3)NC(=O)[C@H](Cc3ccc(OCC(=O)O)cc3)NC2=O)c1` [Compound 2060] ({CH2CO}-[4Pal]Y(Carboxymethyl)D[Phe(3-Me)]Y(Carboxymethyl)[Bip]Y(Carboxymethyl)[Dab][dL][Dab][Cha]VTC[Dab](Piv)-NH2; thioether N-14), 19.3 nM. As for `Cc1cccc(C[C@@H]2NC(=O)[C@H](CC(=O)O)NC(=O)[C@H](Cc3ccc(OCC(=O)O)cc3)NC(=O)[C@H](CN)NC(=O)CSC[C@@H](C(=O)N[C@@H](CCNC(=O)C(C)(C)C)C(N)=O)NC(=O)[C@H]([C@@H](C)O)NC(=O)[C@H](C(C)C)NC(=O)[C@H](CC3CCCCC3)NC(=O)[C@H](CCN)NC(=O)[C@@H](CC(C)C)NC(=O)[C@H](CCN)NC(=O)[C@H](Cc3ccc(OCC(=O)O)cc3)NC(=O)[C@H](Cc3ccc(-c4ccccc4)cc3)NC(=O)[C@H](Cc3ccc(OCC(=O)O)cc3)NC2=O)c1` [Compound 2061] ({CH2CO}-[Dap]Y(Carboxymethyl)D[Phe(3-Me)]Y(Carboxymethyl)[Bip]Y(Carboxymethyl)[Dab][dL][Dab][Cha]VTC[Dab](Piv)-NH2; thioether N-14), the figure is 23.6 nM. As for `Cc1cccc(C[C@@H]2NC(=O)[C@H](CC(=O)O)NC(=O)[C@H](Cc3ccc(OCC(=O)O)cc3)NC(=O)[C@H](Cc3ccncc3)NC(=O)CSC[C@@H](C(=O)N[C@@H](CCN)C(N)=O)NC(=O)[C@H]([C@@H](C)O)NC(=O)[C@H](C(C)C)NC(=O)[C@H](CC3CCCCC3)NC(=O)[C@H](CCNC(=O)C(C)(C)C)NC(=O)[C@@H](CC(C)C)NC(=O)[C@H](CCN)NC(=O)[C@H](Cc3ccc(OCC(=O)O)cc3)NC(=O)[C@H](Cc3ccc(-c4ccccc4)cc3)NC(=O)[C@H](Cc3ccc(OCC(=O)O)cc3)NC2=O)c1` [Compound 2062] ({CH2CO}-[4Pal]Y(Carboxymethyl)D[Phe(3-Me)]Y(Carboxymethyl)[Bip]Y(Carboxymethyl)[Dab][dL][Dab](Piv)[Cha]VTC[Dab]-NH2; thioether N-14), the IC50 was found to be 12.8 nM. In the case of `Cc1cccc(C[C@@H]2NC(=O)[C@H](CC(=O)O)NC(=O)[C@H](Cc3ccc(OCC(=O)O)cc3)NC(=O)[C@H](CN)NC(=O)CSC[C@@H](C(=O)N[C@@H](CCN)C(N)=O)NC(=O)[C@H]([C@@H](C)O)NC(=O)[C@H](C(C)C)NC(=O)[C@H](CC3CCCCC3)NC(=O)[C@H](CCNC(=O)C(C)(C)C)NC(=O)[C@@H](CC(C)C)NC(=O)[C@H](CCN)NC(=O)[C@H](Cc3ccc(OCC(=O)O)cc3)NC(=O)[C@H](Cc3ccc(-c4ccccc4)cc3)NC(=O)[C@H](Cc3ccc(OCC(=O)O)cc3)NC2=O)c1` [Compound 2063] ({CH2CO}-[Dap]Y(Carboxymethyl)D[Phe(3-Me)]Y(Carboxymethyl)[Bip]Y(Carboxymethyl)[Dab][dL][Dab](Piv)[Cha]VTC[Dab]-NH2; thioether N-14) it was 16.2 nM. As for `Cc1cccc(C[C@@H]2NC(=O)[C@H](CC(=O)O)NC(=O)[C@H](Cc3ccc(OCC(=O)O)cc3)NC(=O)[C@H](Cc3ccncc3)NC(=O)CSC[C@@H](C(=O)NC3(C(N)=O)CC3)NC(=O)[C@H](CO)NC(=O)[C@H](C(C)C)NC(=O)[C@H](CC3CCCCC3)NC(=O)[C@H](CCN)NC(=O)[C@@H](CC(C)C)NC(=O)[C@H](CCCN)NC(=O)[C@H](Cc3ccc(OCC(=O)O)cc3)NC(=O)[C@H](Cc3ccc(-c4ccccc4)cc3)NC(=O)[C@H](Cc3ccc(OCC(=O)O)cc3)NC2=O)c1` [Compound 2064] ({CH2CO}-[4Pal]Y(Carboxymethyl)D[Phe(3-Me)]Y(Carboxymethyl)[Bip]Y(Carboxymethyl)[Orn][dL][Dab][Cha]VSC[Ac3c]-NH2; thioether N-14), the figure is 11.7 nM.
